Laboratory results published in paper PMC4388811, “Co-Solvents as Stabilizing Agents during Heterologous Overexpression in Escherichia coli – Application to Chlamydial Penicillin-Binding Protein 6” (PLoS ONE, 2015).

Target: T1, PBP6Cp (Chlamydia pneumoniae, UniProt A0A0F7X2J0)
T1 construct: native N-terminal signal peptide and C-terminal transmembrane domain removed; OmpA leader (cleaved by E. coli signal peptidase I); C-terminal Strep tag kept; periplasmic expression in E. coli C43(DE3) with betaine
Test: TLC of lipid II DD-carboxypeptidase reaction
Assay type: biochemical
Conditions: lipid II substrate; 50 mM MES pH 5.5, 2 mM MgCl2, 20% DMSO, 37 C, 4 h; inhibitor concentration not given; active-site serine acylation (covalent) described as general beta-lactam mechanism

## CC1(C)S[C@@H]2[C@H](NC(=O)Cc3ccccc3)C(=O)N2[C@H]1C(=O)O [penicillin G]
  TLC of lipid II DD-carboxypeptidase reaction: DD-carboxypeptidase activity of wild type PBP6Cp was stalled in the presence of penicillin G
